Test results reported in patent US6262095A, “Use of tricyclic derivatives of 1,4-dihydro-1,4-dioxo-1H-naphthalene, novel compounds obtained and their application in theraphy” (Laboratoire Innothera, priority 1995, dated 2001).

Experiments:
[1] = tested on: saphenous vein in rabbits; experiment: Potentiation of the contractile response of the rabbit saphenous vein to electrical stimulation; assay type: cell-based; settings: Oryctolagus cuniculus, read-out: increase of contractile response due to electrical stimulation
Experimental: (§1) The contractile effects are measured in vitro under static conditions on vascular capacitance or resistance rings of saphenous, femoral, jugular, mesenteric, and caval veins . . . and on femoral, carotid, basilar, or mesenteric arteries, as well as the thoracic or abdominal aorta . . . in rats (Wistar, 200-250 g), rabbits (New Zealand, 2-2.5 kg), guinea pigs (Dunkin Hartley 250-300 g).
(§2) The rings are placed in a chamber for isolated organs (25 mL for capacitance vessels and 2.5 mL for resistance vessels according to Mulvany), and maintained under isometric conditions using two rigid threads inserted inside the vessel, avoiding causing damage to the endothelium. The vessels are bathed in a modified Krebs solution (in mM: NaCl=118; KCl=4.6; CaCl2 =2.5; MgSO4 =1.2; KH2 PO4 =1.17; NaHCO3 =25; glucose=11), continuously aerated using a gaseous mixture of 95% O2 and 5% Co2, at a pH=7.4, and regulated by thermostat at 37° C. The rings are adjusted to their optimal point as far as the tension-length relationship is concerned. […] The pharmacological studies are carried out after a few standardized preliminary contractile stimulations using a depolarizing solution (hyperpotassic type obtained by replacing NaCl with KCl in equimolar quantities), along with rinsings and periods of equilibration in a pure physiological solution. […]

[2] = tested on: arterial pressure of the conscious rat; experiment: Arterial pressure of the conscious rat; assay type: in vivo; settings: oral 0.1-5-50 mg/kg
Experimental: In the conscious animal, the arterial pressures are measured according to the classical method derived from Riva Rocci, by the analysis of the acoustical wave transmitted at the arterial level and transformed by a ceramic piezo transducer placed on the tail of the rat, downstream from a sleeve that is automatically inflated by a pressure generator. At the microcirculatory level, the variations in the sections of the veinules and arterioles are studied in vivo in the model of the dorsal cutaneous chamber of conscious hamsters, after a video microscopic recording (microscope Leitz Ergolux equipped with a halogen source for the illumination and its black-and-white CD video camera HPR 610) and computer analysis (software Visicap, Pack ICAP) of the images.

[3] = tested on: basilar artery of rabbits; experiment: Contraction of rabbit basilar artery under depolarizing hyperpotassic conditions; assay type: cell-based
Experimental: as §1, §2

[4] = tested on: hyperpermeability induced by histamine in rats; experiment: Hyperpermeability induced by histamine in rats; assay type: in vivo, rat (Wistar); settings: rat, oral 0.1 mg/kg, after 2 h, compared to the control group
Experimental: The vascular permeability is studied in vivo by measuring the extravasation of albumin, the quantity of which is determined using an albumin-binding dye (Evans blue).
The hyperpermeability is induced by the intradermal injection of a solution of histamine, bradykinin, or zymosan.
The technique is derived from that described by Beach & Steinetz, J. Pharmacol. Exp. Therap., 1961, Vol. 131: pp. 400-406.
The abdominal walls of the rats (Wistar, 200-230 g) are shorn 1 h before the start of the experiment. The product to be tested is injected by the intraperitoneal route or orally 1-4 h before the sacrifice. The rats are anesthetized with a halothane mixture. […]
At the site of the injection of the inflammatory agent, the skin is cut and placed into glass tubes with a ground[-glass] neck containing 3 mL of fuming hydrochloric acid. […] The optical densities are quantified by absorption spectrophotometry at a wavelength of 620 nm, against a blank [control] containing only dichloromethane. The averages of the optical densities of the different lots of treated or control animals are calculated, then a percentage of variation of the values corresponding to the treated [experimental] animals compared to those of the control animals is calculated.

[5] = tested on: saphenous vein in rabbits; experiment: Contractile effect on the rabbit saphenous vein precontracted by a depolarizing physiological solution (K+ 40 mM); assay type: cell-based; settings: Oryctolagus cuniculus, precontracted with 40 mM potassium
Experimental: as §1
The rings are placed in a chamber for isolated organs (25 mL for capacitance vessels and 2.5 mL for resistance vessels according to Mulvany), and maintained under isometric conditions using two rigid threads inserted inside the vessel, avoiding causing damage to the endothelium. The vessels are bathed in a modified Krebs solution (in mM: NaCl=118; KCl=4.6; CaCl2 =2.5; MgSO4 =1.2; KH2 PO4 =1.17; NaHCO3 =25; glucose=11), continuously aerated using a gaseous mixture of 95% O2 and 5% Co2, at a pH=7.4, and regulated by thermostat at 37° C. The rings are adjusted to their optimal point as far as the tension-length relationship is concerned. The tensions developed generate an electrical signal through the intermediary of a force sensor (Wheatstone bridge). […] The pharmacological studies are carried out after a few standardized preliminary contractile stimulations using a depolarizing solution (hyperpotassic type obtained by replacing NaCl with KCl in equimolar quantities), along with rinsings and periods of equilibration in a pure physiological solution. The presence of endothelium is verified by the relaxation induced by increasing the concentration of acetylcholine after the stabilization of a vascular precontraction.
The forces of contraction developed by the vascular rings in response to the different compounds are studied on quiescent or electrically stimulated vessels (5-8 Hz), by a "physiological" depolarizing hyperpotassic solution (KCl: 20, 40 mM), by noradrenaline (increasing concentrations), [and by] serotonin (increasing concentrations).
The contractions are expressed in mg force or as a percentage of the maximum contraction at the time of the depolarization with a "physiological" hyperpotassic solution.
The contractile effect of different compounds on the saphenous vein in rabbits, precontracted by a depolarizing "physiological" solution with a potassium concentration of 40 mM, is given as an illustration; the maximum effect produced by each compound is expressed as a percentage of the maximum contraction induced by depolarizing hyperpotassic solutions and as value of ED50): […]

septic shock in rats = experiment: Septic shock induced by LPS in rats; assay type: in vivo; settings: rat, 28 mg/kg i.v. bolus 5 min before induction of septic shock, compared to control group
Experimental: The activity in septic shock is studied in rats after the induction of the shock by an intravenous injection in the bolus of a lipopolysaccharide endotoxin (LPS: 15 mg/kg) of E. col, in a method similar to that described by Terashita et al., Eur. J. Pharmacol., 1985, Vol. 109: pp. 257-261. The arterial pressures are measured as a function of time and comparatively between treated groups and control groups (excipient alone). The compounds are administered intravenously or orally, 5 min or 2 h, respectively, before the injection of LPS.

[6] = tested on: saphenous vein in rabbits; experiment: Potentiation of the contractile response of the rabbit saphenous vein to serotonin; assay type: cell-based
Experimental: as §1, §2

[7] = tested on: carotid arteries of rabbits; experiment: Contraction of rabbit carotid arteries under depolarizing hyperpotassic conditions; assay type: cell-based; settings: Oryctolagus cuniculus, pH 7.4, read-out: ED50 (contraction)
Experimental: as §1, §2

carotid arteries of rats = experiment: Contraction of rat carotid arteries under depolarizing hyperpotassic conditions; assay type: cell-based; settings: pH 7.4, read-out: ED50 (contraction)
Experimental: as §1, §2

Compound: O=C1c2ccccc2C(=O)c2sc(-c3ccco3)nc21 [Example n, 4,9-Dihydro-4,9-dioxo-2-(2-furyl)-naphtho[2,3-d]thiazole]
- activation at 0.3 µM [1]: 200%
- arterial pressure [2]: does not affect the arterial pressure
- contraction of basilar artery [3]: contracts
- decrease of hyperpermeability induced by histamine [4]: 26%
- Emax ([5]; % of maximum contraction induced by hyperpotassic solutions): 24 ± 3%
- EC50 ([5]; read-out: ED50 (the source's name)): 110 nM
- increase of average arterial pressure (septic shock in rats): 20 mm of mercury
- contractile response due to serotonin [6]: selectively potentiates
- EC50 [7]: 120 nM
- EC50 (carotid arteries of rats): 300 nM
